Laboratory results from patent US9388147B2 (Receptos, Inc., priority 2009, dated 2016).
Where two headings read alike, the source gives them in different places.

Tests used:
S1P1 R120A/E121A = target: T1, S1P1 R120A/E121A (Homo sapiens, UniProt P21453, E121A/R120A); experiment: Phosphorylated-ERK1/2 In Cell Western, S1P1 R120A/E121A mutant in CHOK1 cells; assay type: cell-based
T1 construct: expressed in transfected cells; host or cells: CHOK1
Method: (§1) A. Quick-change mutagenesis with PfuTurbo DNA polymerase (Stratagene) was conducted using S1P1/pcDNA3.1 (Missouri S&T cDNA Resource Centre) as the template. Primers were as follows: […]
(§2) PCR conditions were 15 cycles with the following parameters: 95° C. 30 sec, 58° C. 30 sec, 68° C. for 60 sec. All constructs were sequence verified.
(§3) CHOK1 cells were transfected using Fugene (Roche). Stably expressing mixed pools were selected with 2 mg/ml G418. Expression of functional S1P1/EDG1 receptor was confirmed by cell surface FACS with a S1P1 antibody (R&D Systems, clone 218713). Stable pools were seeded at 40,000 cells/well in a clear bottom 96-well tray, and incubated at 37° C. in 5% CO2 for 18 hrs. Cells were serum-starved in FreeStyle 293 medium (Invitrogen) for 4-6 h, then incubated for 5 min with a dose response of compound, in duplicate. Cells were fixed with 4% paraformaldehyde for 20 min, permeabilized with 0.1% Triton X-100 in PBS (4×5 min washes) and blocked for 1 h in Odyssey Blocking Buffer (LI-COR). All incubations were at room temperature. Cells were incubated for 18 h at 4° C. in Rabbit anti-Phospho-ERK1/2 (Cell Signaling #4377) and Mouse anti-ERK1/2 (Cell Signaling #9107) both diluted 1:800 in Odyssey Blocking Buffer. Plates were washed with 0.1% Tween-20 in PBS and then incubated with Odyssey Blocking Buffer containing IRDye 680-labeled goat anti-rabbit antibody (#926-32221; diluted 1/500) and IRDye 800CW-labeled goat anti-mouse antibody (#926-32210; diluted 1/1000). Plates were washed with 0.1% Tween-20 in PBS, all liquid was removed from the wells and the plates were scanned using a LICOR Odyssey scanner. The phospho-ERK1/2 signal was normalized to the ERK1/2 signal. Data was analyzed by non-linear regression using GraphPad Prism to determine the EC50 of binding.

S1P1/EDG1 [1] = target: T2, S1P1/EDG1 (Homo sapiens, UniProt P21453); experiment: Phosphorylated-ERK1/2 In Cell Western, wild type S1P1 in CHOK1 cells; assay type: cell-based
T2 sequence (P21453 whole entry): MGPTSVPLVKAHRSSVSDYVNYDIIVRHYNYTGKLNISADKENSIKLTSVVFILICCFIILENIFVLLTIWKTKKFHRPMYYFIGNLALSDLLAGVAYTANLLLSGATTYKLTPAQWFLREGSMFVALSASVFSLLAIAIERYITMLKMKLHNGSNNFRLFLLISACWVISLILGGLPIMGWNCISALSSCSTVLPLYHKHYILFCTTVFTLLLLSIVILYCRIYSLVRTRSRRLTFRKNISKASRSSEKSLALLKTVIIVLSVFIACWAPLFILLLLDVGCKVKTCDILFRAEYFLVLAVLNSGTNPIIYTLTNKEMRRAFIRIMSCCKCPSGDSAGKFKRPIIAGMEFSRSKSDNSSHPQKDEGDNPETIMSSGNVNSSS
Method: as §3, with “The phospho-ERK1/2 signal was normalized to the ERK1/2 signal.” left out

S1P1/EDG1 [2] = target: T2, S1P1/EDG1; experiment: S1P1 CRE-bla CHOK1 reporter assay, inhibition of Forskolin induced cAMP; assay type: cell-based
Outline: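 Read-out is a FRET β-lactamase substrate (2 h, room temperature) after 4 h, 37 °C compound treatment under 2 μM Forskolin in stable S1P1-transfected CRE-bla CHO-K1 cells. Ten-point curves; non-linear regression gives EC50 for inhibition of Forskolin-stimulated cAMP.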

S1P1 W269L = target: T3, S1P1 W269L (Homo sapiens, UniProt P21453, W269L); experiment: Phosphorylated-ERK1/2 In Cell Western, S1P1 W269L mutant; assay type: cell-based
T3 construct: expressed in transfected cells; host or cells: CHOK1
T3 sequence (P21453 whole entry W269L): as the sequence (P21453 whole entry) above, with W269L counted along it
Method: as §3, with “The phospho-ERK1/2 signal was normalized to the ERK1/2 signal.” left out, “binding. […]” for “binding.”

S1P1 N101A = target: T4, S1P1 N101A (Homo sapiens, UniProt P21453, N101A); experiment: Phosphorylated-ERK1/2 In Cell Western, S1P1 N101A mutant in CHOK1 cells; assay type: cell-based
T4 construct: expressed in transfected cells; host or cells: CHOK1
T4 sequence (P21453 whole entry N101A): as the sequence (P21453 whole entry) above, with N101A counted along it
Method: as §1, §2, §3

S1P3 = target: T5, S1P3 (Homo sapiens, UniProt Q99500); experiment: Specificity over other S1P receptors: S1P3-Gα15 NFAT-bla HEK293T reporter assay; assay type: cell-based; settings: without Forskolin, read-out: S1P3 agonist value (EC50)
T5 construct: host or cells: NFAT-bla HEK293T
T5 sequence (Q99500 whole entry): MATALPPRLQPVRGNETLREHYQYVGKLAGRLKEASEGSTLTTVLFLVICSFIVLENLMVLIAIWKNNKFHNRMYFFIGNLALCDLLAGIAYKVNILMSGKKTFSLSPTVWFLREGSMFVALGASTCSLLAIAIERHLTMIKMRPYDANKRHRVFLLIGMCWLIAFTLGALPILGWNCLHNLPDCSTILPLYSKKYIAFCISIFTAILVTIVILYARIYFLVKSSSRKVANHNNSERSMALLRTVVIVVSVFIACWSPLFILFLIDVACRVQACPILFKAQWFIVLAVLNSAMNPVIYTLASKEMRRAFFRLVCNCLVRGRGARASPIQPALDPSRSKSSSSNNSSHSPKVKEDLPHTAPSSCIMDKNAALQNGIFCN
Method: (§4) Cells were seeded into 384-well black wall/clear bottom plates at 10^4 cells/well/19.5 μl assay media (DMEM-phenol free, 0.5% charcoal/dextran stripped serum, 2 mM glutamine, 0.1 mM NEAA, 1 mM Na-Pyruvate, 25 mM Hepes) and incubated for 18 hrs at 37° C. in 5% CO2. Dose response curves (10-point) were generated in 10 mM Hepes, 0.1% Pluronic F127, in the presence of Forskolin. Cells were treated with 0.5 μl compound in the presence of 2 μM Forskolin for 4 hrs at 37° C. The FRET-based β-lactamase fluorescent substrate (LiveBLAzer™-FRET B/G Loading Kit CC4-AM; Invitrogen) was prepared according to manufacturer's directions, and incubated with cells for 2 hrs at room temperature. Plates were read at Ex:410/Em:458 and Ex:410/Em:522, and the response ratio determined. Data was analyzed by non-linear regression to determine the EC50 for inhibition of Forskolin induced cAMP.
(§5) To assess compound specificity on other S1P receptors the following cell lines were used: S1P2 CRE-bla CHOK1, S1P3-Gα15 NFAT-bla HEK293T (Invitrogen), S1P4-bla TANGO U2OS (Invitrogen), S1P5-bla TANGO U2OS (Invitrogen). The same assay set up for S1P1 was used but without Forskolin. S1P4 and S1P5 assays were performed in FreeStyle Expression medium (Invitrogen). S1P5 cells were incubated for 48 hrs in prior to treatment with compound.

S1P5 = target: T6, S1P5 (Homo sapiens, UniProt Q9H228); experiment: Specificity over other S1P receptors: S1P5-bla TANGO U2OS assay; assay type: cell-based; settings: read-out: S1P5 agonist value (EC50)
T6 construct: Tango fusion (own knowledge: protease cleavage site plus GAL4-VP16 transcription factor at the receptor's C-terminus); host or cells: U2OS (Tango -bla)
T6 sequence (Q9H228 whole entry, the tested form may be a part): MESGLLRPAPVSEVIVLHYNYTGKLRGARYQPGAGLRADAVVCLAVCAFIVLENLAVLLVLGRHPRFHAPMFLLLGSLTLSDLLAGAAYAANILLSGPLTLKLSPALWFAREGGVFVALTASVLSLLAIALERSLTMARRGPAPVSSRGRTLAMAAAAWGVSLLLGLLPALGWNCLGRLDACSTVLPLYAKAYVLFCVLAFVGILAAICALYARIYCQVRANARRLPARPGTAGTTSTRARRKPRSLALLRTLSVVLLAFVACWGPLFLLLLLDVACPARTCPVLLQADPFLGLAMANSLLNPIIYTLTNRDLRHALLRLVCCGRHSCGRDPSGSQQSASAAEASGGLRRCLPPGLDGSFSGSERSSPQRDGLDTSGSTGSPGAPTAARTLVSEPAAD
Method: as §4, §5

[3] = test system: CD4 or CD8 positive T cells; experiment: Lymphopenia in mice; assay type: in vivo; settings: female C57BL6 mice, 1 mg/kg oral gavage, area under the effect curve over 24 h
Method: In mice: Female C57BL6 mice (Simonsen Laboratories, Gilroy Calif.) were housed in an ALAAC accredited facility and the research was approved by the facilities Institutional Animal Care and Use Committee (IACUC). The animals were acclimated to the laboratory for at least 5 days prior to initiation of experiments. Mice (n=3/compound/time-point) were dosed by oral gavage with 1 mg/kg compound formulated in a vehicle consisting of 5% DMSO/5% Tween 20 and 90% 0.1N HCl. Control mice were dosed PO with the vehicle. Terminal whole blood samples were collected from isoflurane anesthetized mice by cardiac puncture into EDTA. Whole blood was incubated with rat anti-mouse CD16/CD32 (Mouse BD Fc Block, #553141), PE-Rat anti-mouse CD45R/B220 (BD #553089), APC-Cy7-Rat anti-mouse CD8a (BD #557654), and Alexa Fluor647-Rat anti-mouse CD4 (BD #557681) for 30 min on ice. Red blood cells were lysed using BD Pharm Lyse Lysing buffer (#555899) and white blood cells were analyzed by FACS. Lymphopenia was expressed as the % of white blood cells that were CD4 or CD8 positive T cells. The overall lymphopenia response over 24 h was estimated by calculating the area under the effect curve (AUEC) using the linear trapezoidal rule.

S1P2 = target: T7, S1P2 (Homo sapiens, UniProt O95136); experiment: Specificity over other S1P receptors: S1P2 CRE-bla CHOK1 reporter assay; assay type: cell-based; settings: S1P2 CRE-bla CHOK1, without Forskolin; read-out: S1P2 agonist value (EC50)
T7 construct: expressed in transfected cells; host or cells: CRE-bla CHOK1
T7 sequence (O95136 whole entry, species assumed): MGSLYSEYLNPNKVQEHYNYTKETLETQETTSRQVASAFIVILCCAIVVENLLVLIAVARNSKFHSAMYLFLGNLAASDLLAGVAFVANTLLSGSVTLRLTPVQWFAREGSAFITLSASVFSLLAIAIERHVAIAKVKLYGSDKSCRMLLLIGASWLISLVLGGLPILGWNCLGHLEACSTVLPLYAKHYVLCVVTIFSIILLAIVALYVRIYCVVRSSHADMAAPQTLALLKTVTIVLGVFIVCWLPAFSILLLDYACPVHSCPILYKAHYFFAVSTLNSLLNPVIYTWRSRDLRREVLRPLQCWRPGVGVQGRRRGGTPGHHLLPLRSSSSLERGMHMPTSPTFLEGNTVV
Method: as §4, §5

S1P4 = target: T8, S1P4 (Homo sapiens, UniProt O95977); experiment: Specificity over other S1P receptors: S1P4-bla TANGO U2OS assay; assay type: cell-based; settings: read-out: S1P4 agonist value (EC50)
T8 construct: Tango fusion (own knowledge: protease cleavage site plus GAL4-VP16 transcription factor at the receptor's C-terminus); host or cells: U2OS (Tango -bla)
T8 sequence (O95977 1-384): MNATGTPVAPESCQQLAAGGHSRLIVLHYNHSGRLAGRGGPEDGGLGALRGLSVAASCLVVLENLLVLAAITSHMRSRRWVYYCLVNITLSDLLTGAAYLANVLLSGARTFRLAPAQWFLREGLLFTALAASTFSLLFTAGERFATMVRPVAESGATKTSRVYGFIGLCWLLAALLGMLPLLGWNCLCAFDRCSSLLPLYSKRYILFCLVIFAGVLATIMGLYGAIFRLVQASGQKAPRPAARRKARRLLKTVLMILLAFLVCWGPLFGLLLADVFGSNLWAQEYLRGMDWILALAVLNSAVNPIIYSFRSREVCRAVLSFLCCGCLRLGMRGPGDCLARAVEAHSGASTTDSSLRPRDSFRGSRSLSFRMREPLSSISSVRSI
Method: as §4, §5

peripheral T-cell counts = experiment: Lymphopenia in rats, 3-5 day multiple dose regimen; assay type: in vivo, rat; settings: female rats, oral, 24 h after final dose of a 3-5 day multiple dose regimen
Method: In rats: Female rats (Simonsen Laboratories, Gilroy Calif.) were housed in an ALAAC accredited facility and the research was approved by the facilities Institutional Animal Care and Use Committee (IACUC). The animals were acclimated to the laboratory for at least 5 days prior to initiation of experiments. Rats (n=3/compound/time-point) were dosed by oral gavage with 1 mg/kg compound formulated in a vehicle consisting of 5% DMS0/5% Tween 20 and 90% 0.1N HCL. Control rats were dosed PO with the vehicle. Whole blood was collected from isoflurane anesthetized rats via the retro-orbital sinus and terminal samples were collected by cardiac puncture into EDTA. Whole blood was incubated with mouse anti-rat CD32 (BD #550271), PE-mouse anti-rat CD45R/B220 (BD #554881), PECy5-mouse anti-rat CD4 (BD #554839), and APC-mouse anti-rat CD8a (eBioscience #17-0084) for 30 minutes on ice. Red blood cells were lysed using BD Pharm Lyse Lysing buffer (#555899) and white blood cells were analyzed with a BD FACSArray. Lymphopenia was expressed as the % of white blood cells that were CD4 or CD8 positive T cells. The overall lymphopenia response over 24 h was estimated by calculating the area under the effect curve (AUEC) using the linear trapezoidal rule.
(§6) The compounds listed in Table 6 were formulated as suspensions in a vehicle consisting of 0.5% carboxymethyl cellulose (Acros Organics) in purified water (pH adjusted to ˜2.2 with hydrochloric acid). The same formulation was used in the rat lymphopenia and toxicology studies described below. The concentration of each compound in suspension was verified to be within ±10% of the target concentration by HPLC-UV.
Prior to the conduct of toxicology studies, the effect of three to five daily doses of each compound on peripheral T-cell counts of female rats was determined (see lymphopenia measurements in rats above). In these lymphopenia studies, blood samples were collected onto EDTA at intervals after the final study dose. The collection times were not identical for each study, however, all studies included a sample collected 24 hours after the final dose. The lymphopenia data was used as a biomarker to select equally pharmacologically active doses for the subsequent toxicology study. […] The high dose in the toxicology study represented a ≧20-fold increment over the low dose.
(§7) The dose producing a 10% increase in lung to body weight ratio was interpolated from a plot of dose versus lung to body weight. The lymphopenia response was measured 24 hours following the final dose of a 3-5 day multiple dose regimen.

[4] = Evaluation of therapeutic index in rats: 5 or 14 day toxicology study, lung to body weight ratio; assay type: in vivo, Sprague-Dawley rat
Method: All studies were conducted in non-fasted male and female Sprague-Dawely rats (Simonsen Laboratories). Rats were housed in an AAALAC accredited facility and the research was approved by the facilities Institutional Animal Care and Use Committee (IACUC). The animals were acclimated to the laboratory for at least 5 days prior to initiation of experiments.
as §6
In the toxicology studies, three male and three female rats per group were assigned to dosing groups using body weight based randomization. A control group in each study received vehicle. All animals were dosed orally by gavage on 5 or 14-consecutive days at a dose volume of 5 mL/kg/day. The animals were observed daily for any manifestations of adverse effect. Twenty-four hours after the final study dose, the rats were anesthetized with isoflurane and a terminal blood sample was taken by intra-cardiac puncture for hematology and clinical chemistry evaluation (IDEXX Laboratories, Sacramento, Calif.). The lungs with trachea were collected, weighed, and then prepared for histology by perfusion with 10% neutral buffered formalin via the trachea. The internally fixed lungs were then preserved in 10% neutral buffered formalin and submitted for histological examination (IDEXX).
The dose of each compound resulting in a 10% increase in the lung to terminal body weight ratio was estimated for each compound by linear interpolation. The therapeutic index was estimated as the ratio of the dose producing 10% lung weight increase to the dose producing 50% T-Cell depletion.
as §7

[5] = agonist activity range, S1P1 CRE-bla CHOK1, 2 μM Forskolin, read-out: S1P1 ACTIVITY

T1 sequence (P21453 whole entry R120A/E121A): as the sequence (P21453 whole entry) above, with R120A, E121A counted along it

Structure (SMILES) | Effect of mutation on binding of compound (in words) (S1P1 R120A/E121A; S1P1 R120A/E121A) | Fold change in EC50 compared to wild type S1P1 (S1P1 R120A/E121A; S1P1 variant R120A/E121A, phospho-ERK1/2) | Phosphorylation of ERK1/2 by S1P1 agonist (in words) (S1P1/EDG1 [1]) | EC50 (S1P1/EDG1 [2]; [5]) [pM] | Effect of mutation on binding of compound (in words) (S1P1 W269L) | Effect of mutation on binding of compound (in words) (S1P1 N101A; S1P1 N101A) | Fold change in EC50 compared to wild type S1P1 (S1P1 N101A; S1P1 variant N101A, phospho-ERK1/2) | EC50 (S1P3) [µM] | EC50 (S1P1/EDG1 [2]; S1P1 CRE-bla CHOK1, with Forskolin, read-out: S1P1 agonist value (EC50)) [pM] | EC50 (S1P5) [µM] | Mouse Lymphopenia (AUEC) [3] | EC50 (S1P2) [µM] | EC50 (S1P4) [µM] | Dose Producing 50% lymphopenia (peripheral T-cell counts) [mg/kg] | Dose Resulting in 10% increase in lung weight ([4]; rats, oral, 5 or 14 consecutive days, interpolated from dose versus lung to body weight) [mg/kg] | TI 14 days ([4]; therapeutic index: dose producing 10% lung weight increase / dose producing 50% T-cell depletion, 14 day toxicology study in rats)
CC(C)Oc1ccc(-c2nc(-c3cccc4c3CCC4NCCC(=O)O)no2)cc1C#N (racemic) [Compound 38] | diminishes binding | 11 | induce phosphorylation of ERK1/2 | < 50 | abolishes binding | had no effect on binding | 2 |  |  |  |  |  |  |  |  | 
CCOc1ccc(-c2nc(-c3cccc4c3CCC4O)no2)cc1OCC (racemic) [Compound 254, (+/−)-4-(5-(3,4,diethoxyphenyl)-1,2,4-oxadiazol-3-yl)-2,3-dihydro-1H-inden-1-ol, reference compound] |  |  |  | 50 to 500 |  |  |  | 5.27 | 160 | 0.0568 | 84 | 5.5 | 5.5 |  |  | 
CC(C)Oc1ccc(-c2nc(-c3cccc4c3CC[C@@H]4NCCO)no2)cc1C#N [Compound 86, (S)-5-(3-(1-(2-hydroxyethylamino)-2,3-dihydro-1H-inden-4-yl)-1,2,4-oxadiazol-5-yl)-2-isopropoxy benzonitrile] |  |  |  |  |  |  |  | 9.94 |  | 0.0552 | 1342 | 9.56 | 4.19 | 0.15 | 2.7 | 18
